Experimental data published in the NIST ThermoML archive (doi:10.1016/j.jct.2012.09.012).

Experiment: molar heat capacity at constant pressure; xn = mol fraction of the nth substance listed
Conditions: 101 kPa, Liquid, Small sample (50 mg) DSC

CC1=CC[C@H]2C[C@@H]1C2(C)C [(S)-2-pinene] + C=C1CCC2CC1C2(C)C
molar heat capacity at constant pressure [J/K/mol]
Conditions	x1 = 0.1002	x1 = 0.2041	x1 = 0.2997	x1 = 0.3922	x1 = 0.5012	x1 = 0.5907	x1 = 0.7026	x1 = 0.7987	x1 = 0.9002	x1 = 1
313.16 K	249.31	250.67	250.67	252.03	250.67	249.31	250.67	252.03	253.4	250.67
318.16 K	252.03	252.03	252.03	253.4	253.4	252.03	253.4	253.4	254.76	252.03
323.16 K	256.12	254.76	256.12	256.12	254.76	254.76	256.12	254.76	256.12	256.12
328.22 K	257.48	256.12	257.48	258.84	256.12	257.48	258.84	256.12	258.84	257.48
333.22 K	260.21	258.84	258.84	260.21	258.84	261.57	260.21	257.48	260.21	260.21
338.19 K	264.29	261.57	262.93	262.93	262.93	262.93	262.93	261.57	262.93	264.29
343.18 K	267.02	265.66	267.02	265.66	265.66	267.02	264.29	264.29	265.66	267.02
348.15 K	269.74	268.38	269.74	268.38	269.74	268.38	267.02	267.02	268.38	269.74
353.18 K	273.83	272.47	272.47	271.11	272.47	272.47	269.74	269.74	269.74	272.47
358.15 K	275.19	273.83	273.83	273.83	275.19	275.19	272.47	271.11	272.47	275.19
363.18 K	277.92	276.56	276.56	276.56	277.92	277.92	273.83	275.19	275.19	277.92
368.17 K	279.28	279.28	279.28	279.28	280.64	280.64	276.56	276.56	277.92	279.28
373.21 K	283.37	282	282	282	282	282	279.28	280.64	279.28	282
378.2 K	284.73	283.37	284.73	284.73	284.73	284.73	280.64	282	282	284.73
383.17 K	287.45	286.09	287.45	287.45	286.09	287.45	284.73	283.37	284.73	287.45
388.2 K	291.54	288.82	290.18	291.54	290.18	290.18	288.82	286.09	287.45	291.54
393.17 K	292.9	291.54	292.9	294.27	292.9	291.54	291.54	288.82	288.82	292.9
398.2 K	294.27	295.63	294.27	296.99	295.63	294.27	294.27	292.9	292.9	294.27
403.19 K	296.99	298.35	296.99	299.71	298.35	296.99	295.63	295.63	294.27	296.99
408.16 K	299.71	301.08	299.71	303.8	302.44	299.71	299.71	298.35	296.99	299.71
413.19 K	301.08	302.44	301.08	305.16	305.16	301.08	301.08	299.71	299.71	301.08
418.19 K	303.8	305.16	303.8	306.53	306.53	302.44	303.8	303.8	302.44	303.8
